Data: patent US20250051316A1, “2-(ARYL-2-YL) […] […], PREPARATION METHOD THEREFOR AND APPLICATION THEREOF” (SHANGHAI HANSOH BIOMEDICAL CO., LTD., priority 2021, published 2025)

The compounds below were run against T1, TAAR1 receptor (Homo sapiens, UniProt Q96RJ0) (assay: Effect on cAMP content in cells which stably express TAAR1 receptor).
T1 construct: expressed in transfected cells
T1 sequence (Q96RJ0 1-339): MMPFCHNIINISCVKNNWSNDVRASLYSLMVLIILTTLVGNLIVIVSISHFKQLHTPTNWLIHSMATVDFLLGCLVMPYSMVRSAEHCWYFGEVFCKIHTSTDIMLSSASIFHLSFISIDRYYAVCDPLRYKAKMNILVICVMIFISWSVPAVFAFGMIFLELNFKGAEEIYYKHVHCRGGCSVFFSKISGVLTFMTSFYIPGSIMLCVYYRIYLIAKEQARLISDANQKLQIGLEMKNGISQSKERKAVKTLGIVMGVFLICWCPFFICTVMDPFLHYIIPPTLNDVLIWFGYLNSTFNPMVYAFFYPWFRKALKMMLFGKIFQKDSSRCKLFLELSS
Format: cell-based
Description: Test Example1. Determination of the effect of the present compound on cAMP content in cells which stably express TAAR1 receptor
Determination of the activation effect of compounds on TAAR1 receptors.
• 1) Preparation of experimental buffer: 1*HBSS+20 mM HEPES+0.1% BSA+500 μM IBMX. • 2) Complete medium: • Ham's F12K+10% Fetal Bovine Serum+1*Penicillin-Streptomycin+200 μg/mL Hygromycin B for CHO • DMEM+10% Fetal Bovine Serum+1*Penicillin-Streptomycin+200 μg/mL Hygromycin B for HEK293 • 3) TAAR1 cell line was cultured in complete medium at 37° C. and 5% CO2; After TrypLE digestion, the cells were resuspended in the experimental buffer and seeded into a 384 cell culture plate with a density of 8000 cells/15 ul/well. • 4) The compound was diluted with experimental buffer and added 5 μL to each well to culture at 37° C. for 30 minutes. • 5) cAMP-d2 and Anti cAMP Eu3+ were freeze thaw, and diluted 20 times with lysis buffer; 10 μL cAMP-d2 was added to the experimental well, and then 10 μL Anti cAMP Eu3+ was added into the experimental well; the reaction plate was centrifuged at 200 g for 30 seconds at room temperature, and stand at 25° C. for 1 hour; data was collected by Envision.
[formula] • 5) EC50 of compounds was calculated using GraphPad nonlinear fitting formula:
[formula] • X: Log value of the compound concentration; Y: Activation %

| SMILES | EC50 [nM] |
| --- | --- |
| [2H]C1([2H])COC(c2cccc(C)n2)CN1 (single isomer, unassigned) [Example 10-2, 2-(6-Methylpyridin-2-yl)morpholin-5,5-d2] | 5.4 |
| [2H]C1([2H])CO[C@@H](c2ccc(F)cn2)CN1 (single isomer, unassigned) [Example 17-2, 2-(5-fluoropyridin-2-yl)morpholin-5,5-d2] | 8.3 |
| [2H]C1([2H])CO[C@H](c2ccc(F)cc2)CN1 (single isomer, unassigned) [Example 33-1, 2-(4-Fluorophenyl)morpholin-5,5-d2] | 7.9 |
